Source: article PMC10484922, “Discovery of a selective and biologically active low-molecular weight antagonist of human interleukin-1β” (Nature Communications, 2023)
Entries after “also recorded” stand apart in the source; their conditions may differ.

Tests used:
[1] = tested on: CHO IL-36R reporter cell line stimulated with IL-36γ; assay: NanoBiT reporter assay, CHO IL-36R cells, IL-36γ driven; assay type: cell-based; set-up: average: scale not given here
Method: (§1) Reporter cell system for NanoBiT assay
(§2) CHO IL-36R or CHO IL-1R1 reporter cell lines, prepared internally (Klemens Ka u p ma n n ), based on tagged IL-1RAcP and Myd88 proteins using the NanoBiT complementation system, were seeded at a densi ty of 10’000 cells/well in 30 µL of OptiMEM + 0.1 % FCS medium using 384-well plates (white, TCT), for 24 hours.
(§3) Before the treatment, the medium was removed, 20 µL of NanoGlo substrate, (#N2012, Pr o me g a ) were added to the wells. Following substrate addi ti on, 240 nL of compound were added to the wells using an ECH O dispenser device. Then, 3.76 µL of the ligand IL-36g (Novartis) at 200 ng/mL end concentration or recombinant IL-1b (Novartis) at 500 pg/mL end concentration were added to the mix. Luminescence was measured at 405 nm after 30 min incubation (Pherastar reader). […]

[2] = tested on: CHO IL-1R1 reporter cell line stimulated with IL-1β; assay: NanoBiT reporter assay, CHO IL-1R1 cells, IL-1β driven; assay type: cell-based; set-up: average: scale not given here; conditions: for average: IL-1beta
Method: as §1, §2, §3

What does the source list for Cc1ccc2c(c1)NC(=O)[C@@]2(c1cn[nH]c1)c1cc(-c2ccc(C(=O)O)cc2C(=O)O)ccc1O [Compound (S)-2]?
IL-36γ-driven NanoBiT reporter activity [1]: without effect on IL-36g-driven activity; also recorded: no inhibitory activity; average ([1]; IL-36, EXP1, conc 0.00610352 uM): -8.032; average ([1]; IL-36, EXP1, conc 0.012207 uM): -2.7959; average ([1]; IL-36, EXP1, conc 0.0244141 uM): -4.066; average ([1]; IL-36, EXP1, conc 0.0488281 uM): -1.337; average ([1]; IL-36, EXP1, conc 0.0976562 uM): -10.0933; average ([1]; IL-36, EXP1, conc 0.195312 uM): -6.363; average ([1]; IL-36, EXP1, conc 0.390625 uM): -11.0347; average ([1]; IL-36, EXP1, conc 0.78125 uM): -4.52; average ([1]; IL-36, EXP1, conc 1.5625 uM): -4.793; average ([1]; IL-36, EXP1, conc 3.125 uM): -8.376; average ([1]; IL-36, EXP1, conc 6.25 uM): -1.775; average ([1]; IL-36, EXP1, conc 12.5 uM): -2.393; average ([1]; IL-36, EXP1, conc 25 uM): -11.2956; average ([1]; IL-36, EXP1, conc 50 uM): -8.608; average ([1]; IL-36, EXP1, conc 100 uM): 2.894; average ([1]; IL-36, EXP2, conc 0.00610352 uM): -0.8565; average ([1]; IL-36, EXP2, conc 0.012207 uM): -0.8771; average ([1]; IL-36, EXP2, conc 0.0244141 uM): 16.4182; average ([1]; IL-36, EXP2, conc 0.0488281 uM): -7.751; average ([1]; IL-36, EXP2, conc 0.0976562 uM): 10.3597; average ([1]; IL-36, EXP2, conc 0.195312 uM): 5.839; average ([1]; IL-36, EXP2, conc 0.390625 uM): 4.392; average ([1]; IL-36, EXP2, conc 0.78125 uM): 8.396; average ([1]; IL-36, EXP2, conc 1.5625 uM): 12.4114; average ([1]; IL-36, EXP2, conc 3.125 uM): 6.063; average ([1]; IL-36, EXP2, conc 6.25 uM): 0.8781; average ([1]; IL-36, EXP2, conc 12.5 uM): 10.8339; average ([1]; IL-36, EXP2, conc 25 uM): 7.445; average ([1]; IL-36, EXP2, conc 50 uM): 10.4408; average ([1]; IL-36, EXP2, conc 100 uM): 12.6091; average ([1]; IL-36, EXP3, conc 0.00610352 uM): 2.096; average ([1]; IL-36, EXP3, conc 0.012207 uM): -6.441; average ([1]; IL-36, EXP3, conc 0.0244141 uM): 4.8088; average ([1]; IL-36, EXP3, conc 0.0488281 uM): -5.951; average ([1]; IL-36, EXP3, conc 0.0976562 uM): -4.784; average ([1]; IL-36, EXP3, conc 0.195312 uM): -4.89; average ([1]; IL-36, EXP3, conc 0.390625 uM): -47.4888; average ([1]; IL-36, EXP3, conc 0.78125 uM): -7.151; average ([1]; IL-36, EXP3, conc 1.5625 uM): -6.215; average ([1]; IL-36, EXP3, conc 3.125 uM): -8.634; average ([1]; IL-36, EXP3, conc 6.25 uM): -10.5486; average ([1]; IL-36, EXP3, conc 12.5 uM): -5.26; average ([1]; IL-36, EXP3, conc 25 uM): -17.1151; average ([1]; IL-36, EXP3, conc 50 uM): -4.192; average ([1]; IL-36, EXP3, conc 100 uM): -4.987; IL-1β-driven NanoBiT reporter activity [2]: inhibited the reporter activity driven; average ([2]; EXP1, conc 0.00610352 uM): -2.539; average ([2]; EXP1, conc 0.012207 uM): 1.596; average ([2]; EXP1, conc 0.0244141 uM): -3.451; average ([2]; EXP1, conc 0.0488281 uM): 3.112; average ([2]; EXP1, conc 0.0976562 uM): 2.615; average ([2]; EXP1, conc 0.195312 uM): -0.4746; average ([2]; EXP1, conc 0.390625 uM): 9.543; average ([2]; EXP1, conc 0.78125 uM): 7.593; average ([2]; EXP1, conc 1.5625 uM): 13.469; average ([2]; EXP1, conc 3.125 uM): 26.7566; average ([2]; EXP1, conc 6.25 uM): 37.1219; average ([2]; EXP1, conc 12.5 uM): 46.91; average ([2]; EXP1, conc 25 uM): 52.2595; average ([2]; EXP1, conc 50 uM): 56.8016; average ([2]; EXP1, conc 100 uM): 68.8694; average ([2]; EXP2, conc 0.00610352 uM): -2.716; average ([2]; EXP2, conc 0.012207 uM): 3.9057; average ([2]; EXP2, conc 0.0244141 uM): -3.335; average ([2]; EXP2, conc 0.0488281 uM): 6.501; average ([2]; EXP2, conc 0.0976562 uM): 5.016; average ([2]; EXP2, conc 0.195312 uM): 1.522; average ([2]; EXP2, conc 0.390625 uM): 11.9124; average ([2]; EXP2, conc 0.78125 uM): 10.8854; average ([2]; EXP2, conc 1.5625 uM): 17.5198; average ([2]; EXP2, conc 3.125 uM): 31.5581; average ([2]; EXP2, conc 6.25 uM): 41.289; average ([2]; EXP2, conc 12.5 uM): 51.7241; average ([2]; EXP2, conc 25 uM): 56.0031; average ([2]; EXP2, conc 50 uM): 59.3287; average ([2]; EXP2, conc 100 uM): 71.2739; average ([2]; EXP3, conc 0.00610352 uM): 1.19; average ([2]; EXP3, conc 0.012207 uM): 3.77; average ([2]; EXP3, conc 0.0244141 uM): 3.912; average ([2]; EXP3, conc 0.0488281 uM): 4.68; average ([2]; EXP3, conc 0.0976562 uM): -1.021; average ([2]; EXP3, conc 0.195312 uM): 3.354; average ([2]; EXP3, conc 0.390625 uM): 4.389; average ([2]; EXP3, conc 0.78125 uM): 9.349; average ([2]; EXP3, conc 1.5625 uM): 13.3994; average ([2]; EXP3, conc 3.125 uM): 22.0107; average ([2]; EXP3, conc 6.25 uM): 30.3621; average ([2]; EXP3, conc 12.5 uM): 43.476; average ([2]; EXP3, conc 25 uM): 49.8685; average ([2]; EXP3, conc 50 uM): 57.8931; average ([2]; EXP3, conc 100 uM): 64.0514
